Literature values, collected in patent publication US11369558B1, “Multi-component nutritional supplement formulations and treatment regimen” (priority 2018, dated 2022).

Details: in the human body

C[S+](C)[O-] [DMSO, dimethyl sulfoxide]
Share of DMSO converted to MSM: approximately 15%
